Experiments:
[1] = target: cytoplasmic domain of VraS (VraS-C) (Staphylococcus aureus, UniProt Q99SZ7); test: biochemical; assay type: binding; conditions: for Kd: NB = No Binding, read-out: KD VraS
[2] = target: VraR (Staphylococcus aureus, UniProt Q7A4R9); test: biochemical; assay type: binding; conditions: for RUmax VraR / Kd: His-tagged VraR; for Kd: NB = No Binding; for binding to VraR: SPR
[3] = target: PurC (unrelated protein, control) (Bacillus anthracis, UniProt Q81ZH5); assay type: binding; conditions: read-out: KD PurC (control)
Chain of PurC (unrelated protein, control) (Q81ZH5 whole entry, looked up): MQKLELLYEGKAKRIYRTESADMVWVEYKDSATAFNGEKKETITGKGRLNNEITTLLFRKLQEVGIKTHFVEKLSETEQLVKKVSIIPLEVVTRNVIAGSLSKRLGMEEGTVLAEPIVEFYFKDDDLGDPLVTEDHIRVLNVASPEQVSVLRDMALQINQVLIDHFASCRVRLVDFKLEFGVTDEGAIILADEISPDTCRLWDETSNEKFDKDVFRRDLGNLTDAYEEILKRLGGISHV

[4] = tested on: test strain 923 pPvra-lux; test: Secondary screen / synergy confirmation of Top 40, relative growth with oxacillin; assay type: cell-based, Staphylococcus aureus; conditions: Top 40 library, compound at maximum non-GI conc
Method: In the secondary screen each microtiter plate contained either cells in TSB alone (16 replicates), cells with oxacillin (2 μg/mL, 31 replicates), or cells with test compound and oxacillin (2 μg/mL, 49 wells). Each compound was assayed in four separate biological replicates.
Synergy Confirmation of “Top 40”. […]

[5] = tested on: vraSR promoter (Pvra-lux reporter in strain 923); assay type: cell-based, Staphylococcus aureus
Method: In the secondary screen each microtiter plate contained either cells in TSB alone (16 replicates), cells with oxacillin (2 μg/mL, 31 replicates), or cells with test compound and oxacillin (2 μg/mL, 49 wells). Each compound was assayed in four separate biological replicates. […]

[6] = tested on: test strain (923 pPvra-lux); test: Growth inhibition by compound alone (maximum non-growth-inhibitory concentration); assay type: cell-based, Staphylococcus aureus; conditions: compound alone; maximum concentration where it did NOT inhibit growth
[7] = tested on: multiple strains of MRSA; test: MICs (minimal inhibitory concentrations) vs multiple strains of MRSA; assay type: cell-based, Staphylococcus aureus; conditions: compound at 1 mg/L
[8] = tested on: test strain 923 pPvra-lux (USA300 MRSA); test: Primary screen, relative growth in presence of oxacillin; conditions: compound 10 μM with oxacillin 2 μg/mL, absorbance 24 h, <0.50 = dead cells = hit
[9] = tested on: vraSR promoter (Pvra-lux reporter in strain 923); test: Primary screen, relative luminescence (vraSR expression); conditions: primary screen, compound 10 μM with oxacillin 2 μg/mL; <0.50 = vraSR repressed = hit

Chain of cytoplasmic domain of VraS (VraS-C) (Q99SZ7 70-347): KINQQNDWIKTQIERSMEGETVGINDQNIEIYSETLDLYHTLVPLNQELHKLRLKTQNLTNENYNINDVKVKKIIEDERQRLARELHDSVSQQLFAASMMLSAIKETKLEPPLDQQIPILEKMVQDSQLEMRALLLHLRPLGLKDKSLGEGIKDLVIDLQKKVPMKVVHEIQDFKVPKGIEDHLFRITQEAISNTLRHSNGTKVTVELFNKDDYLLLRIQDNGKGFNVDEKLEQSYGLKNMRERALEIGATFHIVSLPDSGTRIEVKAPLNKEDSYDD
Chain of VraR (Q7A4R9 whole entry): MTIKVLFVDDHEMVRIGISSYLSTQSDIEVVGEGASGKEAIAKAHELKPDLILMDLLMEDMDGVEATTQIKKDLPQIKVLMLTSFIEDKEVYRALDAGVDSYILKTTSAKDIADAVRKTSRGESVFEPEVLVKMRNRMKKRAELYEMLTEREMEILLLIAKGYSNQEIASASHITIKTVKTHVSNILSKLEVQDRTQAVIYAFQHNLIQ

Row | SMILES | Kd ([1]; new run with His-tagged VraS) [µM] | RUmax VraR [2] | Kd [2] [µM] | binding to VraR [2] | Kd [3] [µM] | also measured
1 | O=C(Nc1nnc(-c2cc(Cl)sc2Cl)o1)c1nc2ccccc2s1 [F1374-2739] | 69.6 ± 11.6 | 80.3 ± 8.8 | 54.4 ± 12.2 | bound | > 100 | binding to VraS-C ([1]; SPR): bound; RUmax VraS ([1]; new run with His-tagged VraS): 69.1 ± 6.2
2 | Oc1ccc(C2(c3cccc(Br)c3)CCCCC2)cc1 [F0020-1560] | – | – | – | – | – | RG Ox avg [4]: 0.68; RL Ox avg ([5]; Top 40 library, with oxacillin, compound at maximum non-GI conc): 0.17; vraSR repressing synergist ([5]; overall class from syn and rep): 2. possible; maximum non-GI conc [6]: 40 µg/mL; Ox MIC in presence of compound ([7]; isolate 923, SCCmec IV, ST 8): 1 µg/mL; Ox MIC in presence of compound ([7]; isolate 1176, SCCmec II, ST 231): <0.5 µg/mL; Ox MIC in presence of compound ([7]; isolate 2169, SCCmec IV, ST 72): 1 µg/mL; Ox MIC in presence of compound ([7]; isolate 8004-01, SCCmec III, ST 239): <4 µg/mL; Ox MIC in presence of compound ([7]; isolate 8010-01, SCCmec IV, ST 8): 1 µg/mL; Ox MIC in presence of compound ([7]; isolate 8227-01, SCCmec IV, ST 87): 0.25 µg/mL; Ox MIC in presence of compound ([7]; isolate 11095, SCCmec II, ST 105): <2 µg/mL; Ox MIC in presence of compound ([7]; isolate 13113, SCCmec II, ST 5): <0.13 µg/mL; Ox MIC in presence of compound ([7]; isolate 13354, SCCmec IV, ST 5): <0.13 µg/mL; Ox MIC in presence of compound ([7]; isolate 14315, SCCmec IV, ST 1): <0.5 µg/mL; Ox MIC in presence of compound ([7]; isolate Q2461, SCCmec VT, ST 59): 4 µg/mL; RG avg (relative growth) [8]: 0.02; RL avg (relative luminescence) [9]: −0.01
3 | COc1cccc(-c2nnc(NC(=O)c3cccc(F)c3)o2)c1 [F1374-0327] | > 100 | – | > 100 | – | > 100 | –
4 | Cc1ccc(-c2nnc(NC(=O)c3ccccc3Cl)o2)c(C)c1 [F2518-0150] | > 100 | – | > 100 | – | > 100 | –
5 | Cc1ccc(C)c(-c2nnc(NC(=O)c3nc4ccccc4s3)o2)c1 [F2518-0327] | > 100 | 46.5 ± 2.9 | 15.4 ± 6.4 | bound | > 100 | –
6 | O=C(Nc1nnc(-c2cc(Cl)ccc2Cl)o1)c1ccc(Cl)s1 [F2518-0042] | > 100 | – | > 100 | – | > 100 | –
